In US20260098008A1, “COVALENT, CHEMOGENETIC ACTIVATORS FOR K2P POTASSIUM CHANNELS AND USES THEREOF” (THE REGENTS OF THE UNIVERSITY OF CALIFORNIA, priority 2022, published 2026):
Positions count from the first letter of the chain named.

Columns and labels:
Format in all cases: cell-based
A286F TREK-1^CG* = molecular target: T1, A286F TREK-1^CG* (Mus musculus, UniProt P97438, A301F/S146C); assay: TEVC in Xenopus oocytes, attenuated channels; settings: 20 μM; sequential addition of ML335, CAT335, BL-1249; 0 mV
T1 construct: expressed in transfected cells; host or cells: Xenopus laevis oocytes injected with mRNA
T1 sequence (P97438 1-411 isoform P97438-2 S131C/A286F): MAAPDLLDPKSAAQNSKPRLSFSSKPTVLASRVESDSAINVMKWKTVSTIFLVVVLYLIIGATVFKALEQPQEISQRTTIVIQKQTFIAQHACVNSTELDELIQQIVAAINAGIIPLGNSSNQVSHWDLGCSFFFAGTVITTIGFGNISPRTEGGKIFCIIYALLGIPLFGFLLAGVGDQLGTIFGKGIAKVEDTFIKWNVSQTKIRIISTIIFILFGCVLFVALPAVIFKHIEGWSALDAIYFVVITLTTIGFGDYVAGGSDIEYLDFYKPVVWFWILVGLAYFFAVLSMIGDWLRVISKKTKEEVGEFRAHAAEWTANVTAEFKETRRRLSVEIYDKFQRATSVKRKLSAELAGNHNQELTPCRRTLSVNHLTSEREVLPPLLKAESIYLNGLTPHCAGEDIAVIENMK
Source text: (§1) Mouse K2P2.1 (TREK-1) (Genbank accession number: NP_034737.2), mouse K2P10.1 (TREK-2) (NM_001316665.1), mouse K2P4.1 (TRAAK) (NM_008431.3), human K2P4.1 (TRAAK) (NM_033310.2) and mouse K2P18.1(TRESK) (NM_207261.3) were used for this study. Point mutations were introduced by site-directed mutagenesis using custom primers and confirmed by sequencing before use. For studies using Xenopus oocytes, K2P channels were subcloned into a previously reported pGEMHE/pMO vector (46). For expression in HEK293 cells, mouse K2P2.1 (TREK-1) and mutants were expressed from a previously described pIRES2-EGFP vector in HEK293 cells (46,47). K2P2.1 (TREK-1) tandems were constructed by connecting the open reading frames for the individual subunits with a linker encoding the […] (SEQ ID NO: 19) sequence. Tandems used for HEK293 cells included an N-terminal HA tag ([…] (SEQ ID NO: 20)) on the first subunit.
(§2) Xenopus laevis oocytes were harvested according to UCSF IACUC Protocol AN129690 and digested using collagenase (Worthington Biochemical Corporation, #LS004183, 0.8-1.0 mg/mL) in Ca^21-free ND96 (96 mM NaCl, 2 mM KCl, 3.8 mM MgCl2, 5 mM HEPES pH 7.4) immediately post-harvest, as previously reported (31,33). Oocytes were maintained at 18° C. in ND96 (96 mM NaCl, 2 mM KCl, 1.8 mM CaCl2, 2 mM MgCl2, 5 mM HEPES pH 7.4) supplemented with antibiotics (100 units mL^−1 penicillin, 100 μg mL^−1 streptomycin, 50 μg mL^−1 gentimycin) and used for experiments within one week of harvest.
(§3) Defolliculated stage V-VI oocytes were microinjected with 0.5-36 ng mRNA and currents were recorded within 16-48 h hours of injection.
(§4) For recordings, oocytes were impaled with borosilicate recording microelectrodes (0.4-2.0 MΩ resistance) backfilled with 3 M KCl and were subjected to constant perfusion of ND96 at a rate of 3 ml min^−1. Recording solutions containing K2P activators were prepared immediately prior to use from DMSO stocks (20-100 mM), with final DMSO concentrations of 0.1%. Currents were evoked from a −80 mV holding potential followed by a 300 ms ramp from −150 mV to +50 mV. Data were recorded using a GeneClamp 500B amplifier (MDS Analytical Technologies) controlled by pCLAMP8 software (Molecular Devices), and digitized at 1 kHz using Digidata 1332 Å digitizer (MDS Analytical Technologies). For each recording, control solution (ND96) was perfused over a single oocyte until current was stable before switching to solutions containing the test compounds at various concentrations. Representative traces and dose response plots were generated in GraphPad Prism 9.

G171F TREK-1^CG* = molecular target: T2, G171F TREK-1^CG* (Mus musculus, UniProt P97438, G186F/S146C); assay: TEVC in Xenopus oocytes, attenuated channels; settings: 20 μM; sequential addition of ML335, CAT335, BL-1249; 0 mV
T2 construct: expressed in transfected cells; host or cells: Xenopus laevis oocytes injected with mRNA
T2 sequence (P97438 1-411 isoform P97438-2 S131C/G171F): T1 sequence (P97438 1-411 isoform P97438-2 S131C/A286F) with G171F, F286A
Source text: as §1, §2, §3, §4

K2P2.1 (TREK-1) = molecular target: T3, K2P2.1 (TREK-1) (Mus musculus, UniProt P97438); assay: Two-electrode voltage clamp (TEVC) in Xenopus oocytes; settings: for Fold-activation (I activator/I control): currents at 0 mV
T3 construct: expressed in transfected cells; host or cells: Xenopus laevis oocytes injected with mRNA (pGEMHE/pMO vector)
T3 sequence (P97438 1-411 isoform P97438-2): T1 sequence (P97438 1-411 isoform P97438-2 S131C/A286F) with C131S, F286A

Structure (SMILES)	Fold-activation (I activator/I control) (A286F TREK-1^CG*)	Fold-activation (I activator/I control) (G171F TREK-1^CG*)	Fold-activation after compound washout (K2P2.1 (TREK-1); 20 μM, after washout, Xenopus oocytes) [fold]	Fold-activation (I activator/I control) (K2P2.1 (TREK-1); 20 μM, Xenopus oocytes) [fold]	Reversibility of activation on washout (K2P2.1 (TREK-1); 20 μM, Xenopus oocytes)	Emax (IML335/Icontrol) (K2P2.1 (TREK-1); TEVC at 0 mV) [fold activation]	EC50 (K2P2.1 (TREK-1); TEVC at 0 mV, normalized to initial currents) [µM]
c1ccc(-c2nn[nH]n2)c(Nc2cccc3c2CCCC3)c1 [BL-1249, reference compound]	53+5 fold	62+3 fold					
O=C(NCc1ccc(Cl)cc1Cl)c1ccc(N2C(=O)C=CC2=O)cc1 [CAT335]	21±3 fold	7.8±1.2 fold	4.0 ± 0.6	2.0±0.2			
CS(=O)(=O)Nc1ccc(C(=O)NCc2ccc(Cl)cc2Cl)cc1 [ML335, reference compound]				6.5	immediate reversal	15.8±1.3	24 ± 4
